{
  "source": "patent US4795639A",
  "about": "“Potentiating formulations” (priority 1971, dated 1989)",
  "key": {"Escherichia coli CN 314": {"system": "Escherichia coli CN 314", "assay": "testing discs on standard nutrient medium", "type": "cell-based", "conditions": "Escherichia coli, CN314; read-out: Size of zone in cm (×6 magnification)"}, "Staphylococcus aureus": {"system": "Staphylococcus aureus", "assay": "zone inhibition, pteridine in agar, drugs in well", "type": "cell-based", "conditions": "for complete zone inhibition, SMX (300) / zone including partial inhibition, SMX (300): SMX 300 μg/ml; for complete zone inhibition, TMP + SMX (5) (100) / zone including partial inhibition, TMP + SMX (5) (100): TMP 5 + SMX 100 μg/ml", "protocol": "(§1) The pteridine was included in a soya peptone medium of low thymidine content (Wellcotest Sensitivity Test Agar) contained in a Petri-dish and the other component(s) added to the well resulting from the removal of a small plug from the medium. The surface of the medium was inoculated with the test organism and then incubated."}, "Pseudomonas aeruginosa": {"system": "Pseudomonas aeruginosa", "assay": "zone inhibition, pteridine in agar, drugs in well", "type": "cell-based", "conditions": "for complete zone inhibition, SMX (300) / zone including partial inhibition, SMX (300): SMX 300 μg/ml; for zone including partial inhibition, TMP (30): TMP 30 μg/ml; for complete zone inhibition, TMP + SMX (5) (100) / zone including partial inhibition, TMP + SMX (5) (100): TMP 5 + SMX 100 μg/ml", "protocol": "as §1"}, "E. tenella": {"system": "E. tenella", "assay": "coccidiosis screening test in chicks, E. tenella", "type": "in vivo, Eimeria tenella", "protocol": "(§2) \"Screening tests\" were performed to establish the effectiveness of the compounds of formula (I) both alone and in combination with a competitor and or an inhibitor and to determine the most useful levels of relative concentrations of each component in combatting or suppressing coccidiosis.\n(§3) Groups of Ranger cockerels, housed in small, heated cages with wire floors situated in enironmentally controlled isolation rooms, were infected orally with sporulated oocysts of the Eimeria spp such as E. tenella or E. acervulina. The appropriate test compound(s), (DMHP, sulphaquinoxaline (SQX) or diaveridine (DV) or any combination of these) were incorporated in a small quantity of specially formulated laboratory ration deficient in Vitamin K (`L.D.4 mash`), as a 1/10 pre-mix, which was then mixed into the diet on a horizontal roller drum mixed and administered to groups of chicks one day prior to infection, leaving some groups as untreated controls. Administration was continued for several days, for example about 8 or 9 days.\nThe amount of damage, marked by lesions in the caecal walls was investigated in those chicks that died during the course of the experiment, and in those sacrificed on the final day of administration, and compared with the untreated controls as a basis for the determination of therapeutic activity. In addition the mortality rate and the percentage weight gains in the various groups were assessed. A marked or definite effect of the administered drug could be recognised even when the mortality rates were similar or identical, since the increase in the weight gains and the reduction of the extension of lesions indicated by the lesion score, is characteristic of an improvement. […]\n4:1 sulphaquinoxaline/diaveridine mixtures at levels of 80/20, 60/15, 40/10 and 20/5 p.p.m. were administered alone and in combination with a wide range of low concentrations of DMHP to the birds.\nThe results of these screening tests are set forth in Table 4 showing the concentration of the various component compounds in parts per million of the bird's diet, the mortality from coccidiosis, the percentage weight gain, the lesion score the oocyst output, and the activity. The caecal lesion index is calculated using a score system where: […]\nIn addition a score of 4 is assigned to any bird that dies of coccidiosis during the experiment. [formula] In the activity column, +++, ++, +, ± and - relate respectively to very high, high, slight, doubtful and nil activity of the test drug against the Eimeria infection."}, "E. acervulina": {"system": "E. acervulina", "assay": "coccidiosis screening test in chicks, E. acervulina", "type": "in vivo", "protocol": "as §2\nas §3, with “Administration was continued for several days, for example about 8 or 9 days.” left out\nThe amount of damage, marked by lesions in the caecal walls was investigated in those chicks that died during the course of the experiment, and in those sacrificed on the final day of administration, and compared with the untreated controls as a basis for the determination of therapeutic activity. In addition the mortality rate and the percentage weight gains in the various groups were assessed. […]"}, "Proteus vulgaris CN 329": {"system": "Proteus vulgaris CN 329", "assay": "testing discs on standard nutrient medium", "type": "cell-based", "conditions": "Proteus vulgaris, CN329; read-out: Size of zone in cm (×6 magnification)"}, "[1]": {"conditions": "pteridine 3 μg/ml, TMP 30 μg/ml"}, "[2]": {"conditions": "pteridine 10 μg/ml, TMP 30 μg/ml"}},
  "note": "Several values for one entry are separate records, joined by “and”; a condition that tells them apart may be missing. Equal entries are not always repeated.",
  "data": [
    {"smiles": "CC1(C)Nc2nc(N)nc(O)c2N=C1CO", "note": "[DMHP, 2-amino-4-hydroxy-6-hydroxymethyl-7,7-dimethyl-7,8-dihydropteridine]", "values": [
      {"measurement": "zone of inhibition at 100 µg/disc", "setting": "Escherichia coli CN 314", "result": 0, "unit": "mm"},
      {"measurement": "complete zone inhibition, SMX (300)", "setting": "Staphylococcus aureus; pteridine 3 μg/ml", "result": 4.0, "unit": "centimeters"},
      {"measurement": "zone including partial inhibition, SMX (300)", "setting": "Staphylococcus aureus; pteridine 3 μg/ml", "result": 10.0, "unit": "centimeters"},
      {"measurement": "complete zone inhibition, TMP (30)", "setting": "Staphylococcus aureus; [1]", "result": 8.0, "unit": "centimeters"},
      {"measurement": "zone including partial inhibition, TMP (30)", "setting": "Staphylococcus aureus; [1]", "result": 10.0, "unit": "centimeters"},
      {"measurement": "complete zone inhibition, TMP + SMX (5) (100)", "setting": "Staphylococcus aureus; pteridine 3 μg/ml", "result": 10.0, "unit": "centimeters"},
      {"measurement": "zone including partial inhibition, TMP + SMX (5) (100)", "setting": "Staphylococcus aureus; pteridine 3 μg/ml", "result": 12.0, "unit": "centimeters"},
      {"measurement": "complete zone inhibition, SMX (300)", "setting": "Staphylococcus aureus; pteridine 10 μg/ml", "result": 5.0, "unit": "centimeters"},
      {"measurement": "zone including partial inhibition, SMX (300)", "setting": "Staphylococcus aureus; pteridine 10 μg/ml", "result": 12.0, "unit": "centimeters"},
      {"measurement": "complete zone inhibition, TMP (30)", "setting": "Staphylococcus aureus; [2]", "result": 8.5, "unit": "centimeters"},
      {"measurement": "zone including partial inhibition, TMP (30)", "setting": "Staphylococcus aureus; [2]", "result": 10.5, "unit": "centimeters"},
      {"measurement": "complete zone inhibition, TMP + SMX (5) (100)", "setting": "Staphylococcus aureus; pteridine 10 μg/ml", "result": 10.5, "unit": "centimeters"},
      {"measurement": "zone including partial inhibition, TMP + SMX (5) (100)", "setting": "Staphylococcus aureus; pteridine 10 μg/ml", "result": 12.0, "unit": "centimeters"},
      {"measurement": "complete zone inhibition, TMP (30)", "setting": "Staphylococcus aureus; pteridine 30 μg/ml in medium, TMP 30 μg/ml in well, about 6× magnification", "result": 11.0, "unit": "centimeters"},
      {"measurement": "complete zone inhibition, SMX (300)", "setting": "Staphylococcus aureus; pteridine 30 μg/ml", "result": 9.0, "unit": "centimeters"},
      {"measurement": "zone including partial inhibition, SMX (300)", "setting": "Staphylococcus aureus; pteridine 30 μg/ml", "result": 14.5, "unit": "centimeters"},
      {"measurement": "zone including partial inhibition, TMP (30)", "setting": "Staphylococcus aureus; pteridine 30 μg/ml, TMP 30 μg/ml", "result": 14.0, "unit": "centimeters"},
      {"measurement": "complete zone inhibition, TMP + SMX (5) (100)", "setting": "Staphylococcus aureus; pteridine 30 μg/ml", "result": 11.5, "unit": "centimeters"},
      {"measurement": "zone including partial inhibition, TMP + SMX (5) (100)", "setting": "Staphylococcus aureus; pteridine 30 μg/ml", "result": 14.5, "unit": "centimeters"},
      {"measurement": "complete zone inhibition, SMX (300)", "setting": "Pseudomonas aeruginosa; pteridine 3 μg/ml", "result": 9.0, "unit": "centimeters"},
      {"measurement": "zone including partial inhibition, SMX (300)", "setting": "Pseudomonas aeruginosa; pteridine 3 μg/ml", "result": 14.0, "unit": "centimeters"},
      {"measurement": "zone including partial inhibition, TMP (30)", "setting": "Pseudomonas aeruginosa; pteridine 3 μg/ml", "result": 5.0, "unit": "centimeters"},
      {"measurement": "complete zone inhibition, TMP + SMX (5) (100)", "setting": "Pseudomonas aeruginosa; pteridine 3 μg/ml", "result": 8.0, "unit": "centimeters"},
      {"measurement": "zone including partial inhibition, TMP + SMX (5) (100)", "setting": "Pseudomonas aeruginosa; pteridine 3 μg/ml", "result": 11.0, "unit": "centimeters"},
      {"measurement": "complete zone inhibition, SMX (300)", "setting": "Pseudomonas aeruginosa; pteridine 10 μg/ml", "result": 15.0, "unit": "centimeters"},
      {"measurement": "zone including partial inhibition, SMX (300)", "setting": "Pseudomonas aeruginosa; pteridine 10 μg/ml", "result": 20.0, "unit": "centimeters"},
      {"measurement": "zone including partial inhibition, TMP (30)", "setting": "Pseudomonas aeruginosa; pteridine 10 μg/ml", "result": 6.0, "unit": "centimeters"},
      {"measurement": "complete zone inhibition, TMP + SMX (5) (100)", "setting": "Pseudomonas aeruginosa; pteridine 10 μg/ml", "result": 12.0, "unit": "centimeters"},
      {"measurement": "zone including partial inhibition, TMP + SMX (5) (100)", "setting": "Pseudomonas aeruginosa; pteridine 10 μg/ml", "result": 15.0, "unit": "centimeters"},
      {"measurement": "Mortality from Coccidiosis", "setting": "E. tenella; Expt. 1, 200,000 oocysts, SQX/DV/DMHP p.p.m in diet: -/-/250, -/-/90, -/-/30, -/-/10, 30/30/-, 30/30/250, 30/30/90, 30/30/30, 30/30/10", "result": "1/5 and 2/5 and 3/5"},
      {"measurement": "Mortality from Coccidiosis", "setting": "E. tenella; Expt. 4, 100,000 oocysts, p.p.m SQX/DV/DMHP: b374 10/-/-, b375 -/20/-, b376 -/-/10, b377 10/-/10, b378 -/20/10, b379 10/20/-, b381 10/20/10, b382 20/-/-, b383 -/40/-, b384 -/-/20, b385 20/-/20, b386 -/40/20, b387 20/40/-, b389 20/40/20", "result": "8/10 and 6/10"},
      {"measurement": "Mortality from Coccidiossis", "setting": "E. tenella; Expt. 5, 100,000 oocysts, SQX/DV p.p.m with DMHP 40, 20, 10, 5 p.p.m: b409-412 20/20, b413-416 26.7/13.3, b417-420 30/10, b421-424 32/8, b425-428 33.4/6.6, no DMHP: b429 20/20, b430 26.7/13.3, b431 30/10, b432 32/8, b433 33.4/6.6, DMHP alone b434-437 40, 20, 10, 5", "result": "19/20 and 18/20 and 20/20"},
      {"measurement": "activity alone against infection with E. tenella", "setting": "E. tenella; all levels of concentration tested", "result": "inactive"},
      {"measurement": "potentiation of the activity of diaveridine/sulphaquinoxaline mixtures", "setting": "E. tenella; in many cases by as much as", "result": "3 to 4", "unit": "fold"},
      {"measurement": "Total Oocysts × 10^6 Days 5 & 6", "setting": "E. acervulina; Expt. 8, 5,000,000 oocysts, SQX/DV/DMHP p.p.m: b497-499 -/-/30, 10, 5, b500 10/10/-, b502 10/10/30, b504 10/10/10, b506 10/10/5", "result": "0.0 × 10^6"},
      {"measurement": "activity alone against moderate infection with E. acervulina", "setting": "E. acervulina; concentrations of 250 and 90 p.p.m", "result": "active alone"},
      {"measurement": "zone of inhibition at 100 µg/disc", "setting": "Proteus vulgaris CN 329", "result": 0, "unit": "mm"}
    ]}
  ]
}
